According to US11512042B2, “Enamine compounds for absorbance of electromagnetic energy” (Commonwealth Scientific and Industrial Research Organisation, priority 2015, dated 2022):
Values joined by “and” are separate entries in the source; they are usually repeats but may differ in a detail not shown here. Equal values may be shown once. Marks after values point to notes of the source that are not given here.

Experiments:
Assay type in all cases: physicochemical
[1] = UV absorbance spectrum in solution (λmax, λcrit, extinction coefficients); conditions: for λcrit: critical wavelength; for E (1%, 1 cm): mass extinction coefficient; for ε: molar extinction coefficient, in M-1 cm-1 (unit assumed)
Description: (§1) FIG. 1 is a graphical representation of the absorbance of compounds 142 and 143 measured in a 10 mm cuvette as 0.001% solutions in methanol (142 is the uppermost trace at peak point of approximately 330 nm); The synthesised benzoyl functionalised compounds and their spectroscopic properties can be seen in table 2 wherein; breakthrough denotes the value in nm where transmittance increases beyond 1%; steepness refers to the distance in nm over which transmittance increases from 1 to 80% (a higher value indicates a less steep transition from absorbing to transmitting and is generally unfavourable); and ^a denotes an average of multiple measurements. As a general comment, it can be noted that the benzoyl substituted compounds gave similar absorbance maxima to the corresponding trifluoroacetyl derivative.

[2] = % transmission spectrum of 0.1% solution (breakthrough, steepness); conditions: for Steepness: distance in nm over which transmittance increases from 1 to 80%; for Breakthrough (1% T at 0.1%): value in nm where transmittance increases beyond 1%, 0.1% solution
Description: FIG. 2 is a is a graphical representation of the % transmission of compounds 142 and 143 measured in a 2 mm cuvette as 0.1% solutions in methanol (142 is the left most trace);
as §1, with “The” for “FIG. 1 is a graphical representation of the absorbance of compounds 142 and 143 measured in a 10 mm cuvette as 0.001% solutions in methanol (142 is the uppermost trace at peak point of approximately 330 nm); The”

[3] = Photostability protocol: thin film irradiated with xenon arc lamp; conditions: 1 hour xenon arc lamp; for Photostability: ratio of absorbance at λmax irradiated vs unirradiated, ^a = average of multiple measurements
Protocol: 1 mL of a 3% solution of the test compound (30 mg of test compound in 1 mL solvent) was prepared in a solvent mix made up of 50% EtOH and 25% capric/caprylic triglyceride and 25% C12-C15 alkyl benzoate. 50 μL of this solution (containing 1.5 mg of test compound) was added carefully to the centre of a glass microscope slide and the volatile components left to evaporate in the dark for at least 3 hours to give a liquid film. The prepared films were then exposed for 1 hour to an Eimac 150 W xenon arc lamp filtered through Pyrex (15 Amp supply current, samples 19 cm from the lamp) previously allowed to warm up for 15 minutes prior to sample exposure. The irradiation was performed in a fume cupboard where the air flow was sufficient to keep sample T<30° C. One hour's exposure represented a calculated radiation dose (using meter) of approximately 100 MED.
In order to calculate the photostability of the test compounds, the exposed slides were placed in a beaker and rinsed with 2×5 mL EtOH, 1×5 mL MeOH. The combined washings were then added to a 100 mL volumetric flask and made up to 100 mL total volume with methanol. The UV absorbance was then measured in a 10 mm cuvette. The percent stability is measured as the ratio of absorbance at λmax for the irradiated sample compared to the unirradiated sample.
The thin films are a good surrogate for testing the stability of a candidate in, for example, a sunscreen formulation as they use cosmetic emollients as solvent and are formed at cosmetically relevant concentrations.

λmax [1] [nm] | λcrit [1] [nm] | E (1%, 1 cm) [1] | ε [1] | Steepness [2] [nm] | Breakthrough (1% T at 0.1%) [2] | Photostability (% remains) [3] [%] | Photostability [3] | Compound
319 | 350 | 860 | 23306 | 23 | 361 nm | 97 | 97% | CCN(/C=C(\C(=O)C(F)(F)F)c1ccccc1)CC [Compound 144]
373 | 391 | 1230 | 46134 | 18 | 420 nm | 97 | 97% | COC(=O)c1ccc2c(c1)CCN2/C=C(\C(=O)C(F)(F)F)c1ccccc1 [Compound 201]
347 | 374 | 646 | 30252 | – | – | 85 | – | CCCCC(CC)COC(=O)c1ccc(N(/C=C(\C(=O)C(F)(F)F)c2ccccc2)CC)cc1 (centres unmarked) [Compound 227]
374 | 391 | 1168 | 89042 | – | – | 95 | – | O=C(OCCCOC(=O)c1ccc2c(c1)CCN2/C=C(\C(=O)C(F)(F)F)c1ccccc1)c1ccc2c(c1)CCN2/C=C(\C(=O)C(F)(F)F)c1ccccc1 [Compound 228]
363 | 388 | 989 | 31758 | 34 | 418 nm | – | 80% | CCOC(=O)C(=O)/C(=C\N1CCc2ccccc21)c1ccccc1 [Compound 231]
331 | 365 | 734 | 24467 | 36 | 380 nm | – | 87% | CCCN(/C=C(/C(=O)C(F)(F)F)c1ccccc1)c1ccccc1 [Compound 233]
330 | 365 | 704 | 24440 | 31 | 381 nm | – | 87% | CCCCN(/C=C(/C(=O)C(F)(F)F)c1ccccc1)c1ccccc1 [Compound 234]
348 | 380 | 775 | 28737 | 39 | 400 nm | – | 83% | CCOC(=O)C(=O)/C(=C/N(c1ccccc1)c1ccccc1)c1ccccc1 [Compound 237]
313 | 361 | 776 | 19475 | 40 | 379 nm | – | 10% | CN(C)/C=C(/C(=O)c1ccccc1)c1ccccc1 [Compound 240]
361 | 386 | 893 | 29026 | 37 | 420 nm | – | 70% | O=C(/C(=C/N1CCc2ccccc21)c1ccccc1)c1ccccc1 [Compound 243]
352 | 383 | 536 | 20114 | 43 | 407 nm | – | 58% | O=C(/C(=C/N(c1ccccc1)c1ccccc1)c1ccccc1)c1ccccc1 [Compound 244]
333 | 374 | 621 | 20292 | 40 | 384 nm and 394 nm | – | 55% | CCN(/C=C(/C(=O)c1ccccc1)c1ccccc1)c1ccccc1 [Compound 245]
357 | 385 | 451 | 15933 | 43 | 405 nm | – | 53% | CC1(C)CN(/C=C(/C(=O)c2ccccc2)c2ccccc2)c2ccccc21 [Compound 246]
371 | 389 | 1096 | 41977 | 34 | 422 nm | – | 76% | COC(=O)c1ccc2c(c1)CCN2/C=C(/C(=O)c1ccccc1)c1ccccc1 [Compound 247]
329 | 368 | 728 | 23523 | 38 | 383 nm | – | 78% | CCOC(=O)C(=O)/C(=C\N(CC)c1ccccc1)c1ccccc1 [Compound 248]
341 | 373 | 738 | 28714 | 37 | 389 nm | – | 60% | Cc1ccccc1C(=O)/C(=C/N(c1ccccc1)c1ccccc1)c1ccccc1 [Compound 250]
355 | 378 | 991 | 33598 | 30 | 399 nm | – | 52% | Cc1ccccc1C(=O)/C(=C/N1CCc2ccccc21)c1ccccc1 [Compound 251]
323 | 359 | 771 | 26295 | 39 | 373 nm and 372 nm | – | 48% | CCN(/C=C(/C(=O)c1ccccc1C)c1ccccc1)c1ccccc1 [Compound 252]
355 | 375 | 929 | 34122 | 26 | 392 nm | – | 78% | Cc1cc(C)c(C(=O)/C(=C/N2CCc3ccccc32)c2ccccc2)c(C)c1 [Compound 253]
341 | 369 | 661 | 27592 | 32 | 383 nm | – | 88^a % | Cc1cc(C)c(C(=O)/C(=C/N(c2ccccc2)c2ccccc2)c2ccccc2)c(C)c1 [Compound 254]
323 | 351 | 798 | 29450 | 34 | 364 nm | – | 83^a % | CCN(/C=C(/C(=O)c1c(C)cc(C)cc1C)c1ccccc1)c1ccccc1 [Compound 255]
372 | 391 | – | 48566 and 46566 | 28 | 421 nm | – | 85% | CCOC(=O)C(=O)/C(=C/N1CCc2cc(C(=O)OC)ccc21)c1ccccc1 [Compound 256]
346 | 378 | 382 | 14163 | 32 | 394 nm | – | 85% | CN(C)C(=O)C(=O)/C(=C/N(c1ccccc1)c1ccccc1)c1ccccc1 [Compound 257]
359 | 384 | 1045 | 33443 | 23 | 409 nm | – | 63% | CN(C)C(=O)C(=O)/C(=C\N1CCc2ccccc21)c1ccccc1 [Compound 258]
326 | 365 | 724 | 23336 | 34 | 378 nm | – | 66% | CCN(/C=C(\C(=O)C(=O)N(C)C)c1ccccc1)c1ccccc1 [Compound 259]
313 | 352 | 726 | 19983 | 38 | 363 nm | – | 40% | CCOC(=O)C(=O)/C(=C/N(CC)CC)c1ccccc1 [Compound 260]
